The test system of data set [1] is BMDC. The data set can be described thus: Induction of immune response in TLR7 knockout mouse BMDC cells assessed as increase in TNF-alpha production at 10 to 100 uM incubated for 24 hrs by ELISA method. The class given is functional, cell-based. To be noted: dose 10-100 µM. (In an ELISA, binding on a coated surface is turned into a signal by an enzyme label.)
For data set [2], the system named is RAW264.7. The data set can be described thus: Induction of apoptosis in mouse RAW264.7 cells assessed as necrotic cells at 10 uM by flow cytometry analysis (reference value: 28.7 %). The data set is classed as functional. On the technique in general: Flow cytometry measures light scatter and fluorescence of single cells or particles in a stream.
Data set [3] relates to RAW264.7. The data set is described as follows: Induction of apoptosis in mouse RAW264.7 cells assessed as necrotic cells at 16 uM by flow cytometry analysis (reference value: 28.7 %). The data set is classed as functional.
Data set [4] in a line: Toxicity in BALB/c mouse assessed as effect on body weight loss at 1000 ug measured after 16 hrs in presence of hemagglutinin. The note with it: in vivo, dose 1000 µg.
Data set [5] concerns RAW264.7. The data set is described as follows: Induction of apoptosis in mouse RAW264.7 cells assessed as live cells at 4 uM by flow cytometry analysis (reference value: 67.2 %). The data set is classed as functional.
In data set [6] the test system is RAW264.7. The data set is described as follows: Induction of apoptosis in mouse RAW264.7 cells assessed as necrotic cells at 4 uM by flow cytometry analysis (reference value: 28.7 %). The class given is functional.
In a further data set the test system is Mus musculus. The data set can be described thus: Immuno-adjuvant activity in SV-immunized C57BL/6 mouse assessed as increase in HA-specific IgG1 titer level at 100 ug, sc administered immediately and on day 0, 14 and measured at day 21 by ELISA. To be noted: dose 100.0 µg, time 21.0 day. The data set is classed as functional, organism-based.
The test system of data set [7] is BMDC. The data set is described as follows: Induction of immune response in TLR7 knockout mouse BMDC cells assessed as increase in IL-6 production at 10 to 100 uM incubated for 24 hrs by ELISA method. The class given is functional, cell-based. The note with it: dose 10-100 µM.
Data set [8] concerns BMDC. The data set can be described thus: Induction of immune response in TLR7 knockout mouse BMDC cells assessed as increase in MIP-1alpha production at 10 to 100 uM incubated for 24 hrs by ELISA method. The data set is classed as functional, cell-based. The note with it: dose 10-100 µM.
Data set [9] can be described thus: Toxicity in BALB/c mouse assessed as increase in Timp1 expression at 100 to 1000 ug measured after 16 hrs in presence of hemagglutinin. The note with it: in vivo, dose 100-1000 µg.
The subject of data set [10] is RAW264.7. The data set can be described thus: Induction of apoptosis in mouse RAW264.7 cells assessed as apoptotic cells at 16 uM by flow cytometry analysis (reference value: 3.06 %). The class given is functional.
Data set [11] in a line: Toxicity in BALB/c mouse assessed as increase in Mx2 expression at 100 to 1000 ug measured after 16 hrs in presence of hemagglutinin. The note with it: in vivo, dose 100-1000 µg.
The subject of data set [12] is RAW264.7. The data set is described as follows: Induction of apoptosis in mouse RAW264.7 cells assessed as apoptotic cells at 10 uM by flow cytometry analysis (reference value: 3.06 %). The class given is functional.
Data set [13] deals with RAW264.7. The data set can be described thus: Induction of apoptosis in mouse RAW264.7 cells assessed as necrotic cells at 8 uM by flow cytometry analysis (reference value: 28.7 %). The data set is classed as functional.
Data set [14] can be described thus: Toxicity in BALB/c mouse assessed as reduction in leukocyte count measured after 16 hrs. The note with it: dose 100-1000 µg.
The subject of data set [15] is RAW264.7. The data set is described as follows: Induction of apoptosis in mouse RAW264.7 cells assessed as apoptotic cells at 12 uM by flow cytometry analysis (reference value: 3.06 %). The class given is functional.
For data set [16], the system named is RAW264.7. The data set can be described thus: Induction of apoptosis in mouse RAW264.7 cells assessed as live cells at 16 uM by flow cytometry analysis (reference value: 67.2 %). The class given is functional.
Data set [17] deals with RAW264.7. The data set can be described thus: Induction of apoptosis in mouse RAW264.7 cells assessed as apoptotic cells at 4 uM by flow cytometry analysis (reference value: 3.06 %). The class given is functional.
In data set [18] the test system is RAW264.7. The data set is described as follows: Induction of apoptosis in mouse RAW264.7 cells assessed as live cells at 12 uM by flow cytometry analysis (reference value: 67.2 %). The class given is functional.
Data set [19] concerns BMDC. The data set can be described thus: Induction of immune response in TLR7 knockout mouse BMDC cells assessed as increase in IFN-beta production at 10 to 100 uM incubated for 24 hrs by ELISA method. The data set is classed as functional, cell-based. The note with it: dose 10-100 µM.
Data set [20] relates to RAW264.7. The data set is described as follows: Induction of apoptosis in mouse RAW264.7 cells assessed as apoptotic cells at 8 uM by flow cytometry analysis (reference value: 3.06 %). The class given is functional.
The test system of data set [21] is RAW264.7. The data set can be described thus: Induction of apoptosis in mouse RAW264.7 cells assessed as live cells at 10 uM by flow cytometry analysis (reference value: 67.2 %). The data set is classed as functional.
For data set [22], the system named is BMDC. The data set can be described thus: Induction of immune response in TLR7 knockout mouse BMDC cells assessed as increase in CXCL10 production at 10 to 100 uM incubated for 24 hrs by ELISA method. The class given is functional, cell-based. The note with it: dose 10-100 µM.
Data set [23] has as its system RAW264.7. The data set is described as follows: Induction of apoptosis in mouse RAW264.7 cells assessed as necrotic cells at 12 uM by flow cytometry analysis (reference value: 28.7 %). The data set is classed as functional.
The subject of data set [24] is RAW264.7. The data set is described as follows: Induction of apoptosis in mouse RAW264.7 cells assessed as live cells at 8 uM by flow cytometry analysis (reference value: 67.2 %). The class given is functional.
Data set [25] concerns BMDC. The data set can be described thus: Induction of IL-6 production in mouse BMDC cells at 100 uM. The class given is functional, cell-based.

The source made the active and inactive calls. The calls are words filed in the database; no cut-off is given here.

For the compound `C[C@H](CCC(=O)NCCCCCNC(=O)CC[C@@H](C)[C@H]1CC[C@H]2[C@@H]3CC[C@@H]4C[C@H](O)CC[C@]4(C)[C@H]3C[C@H](O)[C@]12C)[C@H]1CC[C@H]2[C@@H]3CC[C@@H]4C[C@H](O)CC[C@]4(C)[C@H]3C[C@H](O)[C@]12C`, the result in the data set with BMDC [1], with BMDC [7], in the data set with BMDC [8], in the data set on BMDC [19] and with BMDC [22] was inactive. Further, the Activity in the data set on RAW264.7 [2] is 63.8%; in the data set on RAW264.7 [3], 85%; in data set [4] it was “Toxic”; in the data set with RAW264.7 [5], 67.4%; with RAW264.7 [6], 28.6%; in data set [9] it was “Toxic”. For the same compound, the Activity with RAW264.7 [10] is 0.034%; in data set [11] it was “Toxic”; in the data set with RAW264.7 [12], 0.6%; in the data set with RAW264.7 [13], 29.4%; in data set [14] it was “Dose-Dependent Effect”; with RAW264.7 [15] it was 0.13%. The Activity with RAW264.7 [16] is 11.6%; in the data set on RAW264.7 [17] it was 2.23%; in the data set on RAW264.7 [18], 27.9%; with RAW264.7 [20] it was 2.26%; in the data set on RAW264.7 [21], 33.5%; in the data set on RAW264.7 [23] it was 69.7%. In addition, the Activity in the data set on RAW264.7 [24] is on record as 66.9%. The result in the data set with Mus musculus was Active.
Regarding `C[C@H](CCC(=O)NCCCCCNC(=O)CC[C@@H](C)[C@H]1CC[C@H]2[C@@H]3[C@H](O)C[C@@H]4C[C@H](O)CC[C@]4(C)[C@H]3CC[C@]12C)[C@H]1CC[C@H]2[C@@H]3[C@H](O)C[C@H]4C[C@H](O)CC[C@]4(C)[C@H]3CC[C@]12C`, in the data set on BMDC [25], the result was Active.

Source of the values: ChEMBL document CHEMBL5365463, “Identification of a Self-Assembling Small-Molecule Cancer Vaccine Adjuvant with an Improved Toxicity Profile” (J Med Chem, 2023).
